In article PMC6264390, “Design, Synthesis and Structure-activity Studies of Rhodanine Derivatives as HIV-1 Integrase Inhibitors” (Molecules, 2010):
Like-named read-outs stand apart in the source and are kept apart here.

What was measured:
HIV-1 IN = target: T1, HIV-1 IN (Human immunodeficiency virus type 1 group M subtype B, UniProt P12497); assay: In vitro IN inhibition assay (3’-processing and strand transfer); assay type: biochemical; conditions: for IC50: Mn2+ cofactor (7.5 mM MnCl2)
T1 construct: pre-incubated with purified recombinant IN (at a final concentration of 200 nM); made in house
Protocol: (§1) All compounds were dissolved in DMSO to a final stock concentration of 10 mM and stored at −20 °C. Initial screening for IN inhibitory effect was done at 100 μM and dilutions were made in DMSO. Compounds showing at least 50% inhibition at 100 μM were selected for IC50 determinations. γ-[^32P]-ATP was purchased from Perkin Elmer (Waltham, MA, USA). The expression system for wild-type IN was a generous gift of Dr. Robert Craigie, Laboratory of Molecular Biology, NIDDK, NIH (Bethesda, MD, USA). His-tagged APE1 was purified from an expression system kindly provided by Dr. Tom Curran, Department of Developmental Neurobiology, St. Jude Children’s Research Hospital (Memphis, TN, USA).
(§2) 21-mer oligonucleotides used in IN inhibition assay [21top (5’-[…]-3’) and 21bot (5’-ACTGCTAGAGATTTTCCA CAC-3’)] were purchased from Integrated DNA Technologies (Coralville, IA, USA) and purified by UV shadowing on polyacrylamide gel. The oligonucleotides used in APE1 inhibition assay [top strand: 5′-ATTTCACCGGTACG(F)TCTAGAATC CG-3′ containing the tetrahydrofuran synthetic abasic residue (F), and bottom strand: 3′-TAAAGTGG CCATGC(C)AGATCTTAGGC-5′] were purchased from The Midland Certified Reagent Company (Midland, TX, USA). To analyze the extent of 3’-processing and strand transfer with 5’-end labeled substrates, 21top was 5’-end labeled using T4 polynucleotide kinase (Epicentre, Madison, WI, USA) and [γ-^32P]-ATP (Perkin Elmer, Waltham, MA, USA). The kinase was heat-inactivated at 95 °C and 21bot was added in […]. The reaction mixture was allowed to cool slowly to room temperature, and purified through a spin-25 minicolumn (USA Scientific, Ocala, FL, USA) to separate annealed double-stranded oligonucleotide from unincorporated material. The oligonucleotides used in the APE1 inhibition assay were labeled using a similar protocol.
To determine the extent of 3’-processing and strand transfer, the test compounds, diluted in DMSO, were pre-incubated with purified recombinant IN (at a final concentration of 200 nM) in the reaction buffer [50 mM NaCl, 1 mM HEPES (pH 7.5), 50 μM EDTA, 50 μM dithiothreitol, 10% glycerol (w/v), 7.5 mM MnCl2, 0.1 mg mL–1 bovine serum albumin, 10 mM 2-mercaptoethanol, 10% dimethyl sulfoxide, and 25 mM MOPS (pH 7.2)] at 30 °C for 30 min. For Mg^2+ assay, 7.5 mM MgCl2 was substituted for MnCl2 and an optimal concentration of PEG was included in the reaction buffer. Following the pre-incubation, 20 nM of the 5’-end ^32P-labeled linear oligonucleotide substrate was added to the reaction mixture and incubated for an additional 1 h. Reactions were quenched by addition of 50X loading dye (98% deionized formamide, 10 mM EDTA, 0.025% xylene cyanol, and 0.025 % bromophenol blue). An aliquot was subjected to electrophoresis on a denaturing polyacrylamide gel (0.09 M tris–borate, pH 8.3, 2 mM EDTA, 20% acrylamide, 8M urea). Gels were dried under vacuum, exposed in a PhosphorImager cassette and visualized with a Typhoon 8610 Variable Mode Imager (Amersham Biosciences). Quantification was done with Image Quant 5.2 software. Percent inhibition (%I) was calculated using the following equation: %I = 100 × [1 − (D − C) / (N − C)] where C, N, and D are the fractions of 21-mer substrate converted into 19-mer (product of 3’-processing) or strand-transfer products for DNA alone, DNA plus IN, and DNA, IN plus test compound, respectively. IC50 values were determined by plotting the logarithm of test compound concentrations as a function of %I to obtain the concentration that produced 50% inhibition.

[1] = target: T2, human apurinic/apyrimidinic endonuclease 1 (APE1) (Homo sapiens, UniProt P27695); assay: APE1 inhibition assay; assay type: biochemical; conditions: read-out: Inhibition of APE1 catalytic activity IC50
T2 construct: His; made in house
Protocol: as §1, §2
APE1 inhibition assay was performed as previously described. To determine the extent of endonucleolytic cleavage of the abasic residue, the test compounds, diluted in DMSO, were preincubated with recombinant APE1 at a final concentration of 0.05 nM in the reaction buffer [50 mM NaCl, 1 mM HEPES, pH 7.5, 50 μM EDTA, 50 μM dithiothreitol, 10% glycerol (w/v), 7.5 mM MnCl2, 0.1 mg mL‑1 bovine serum albumin, 10 mM 2-mercaptoethanol, 10% DMSO, and 25 mM MOPS, pH 7.2] at 30 °C for 10 min. Following preincubation, 200 nM of the 5′-end ^32P-labeled linear oligonucleotide substrate was added, and incubated for an additional 10 minutes. Reactions were quenched by the addition of an equal volume (16 μL) of loading dye (98% deionized formamide, 10 mM EDTA, 0.025% xylene cyanol, and 0.025% bromophenol blue). An aliquot (5 μL) was electrophoresed on a denaturing 20% polyacrylamide gel (0.09 M tris-borate pH 8.3, 2 mM EDTA, 20% acrylamide, 8 M urea). The gels were dried, exposed in a PhosphorImager cassette and analyzed using a Typhoon 8610 Variable Mode Imager (Amersham Biosciences). Quantification of enzyme inhibition was done using Image Quant 5.2 software. The percent inhibition (% I) was calculated using the following equation: %I = 100 × [1 − (D − C) / (N − C)] where C, N, and D are the fractions of 26-mer substrate converted to 13-mer incision products (or integration products) for DNA alone, DNA plus APE1, and DNA, APE1 plus test compound, respectively. IC50 values were determined by plotting the logarithm of compound concentration as a function of %I to obtain the concentration that produced 50% inhibition. An optimum concentration of APE1 enzyme, at which there is complete conversion of the synthetic abasic-site containing oligonucleotide substrate to its cleaved product without subsequent exonuclease activity, was used in the assay.

[2] = read-out: Inhibition of IN catalytic activity IC50, 3’-Processing
[3] = read-out: Inhibition of IN catalytic activity IC50, Strand Transfer

T2 sequence (P27695 whole entry): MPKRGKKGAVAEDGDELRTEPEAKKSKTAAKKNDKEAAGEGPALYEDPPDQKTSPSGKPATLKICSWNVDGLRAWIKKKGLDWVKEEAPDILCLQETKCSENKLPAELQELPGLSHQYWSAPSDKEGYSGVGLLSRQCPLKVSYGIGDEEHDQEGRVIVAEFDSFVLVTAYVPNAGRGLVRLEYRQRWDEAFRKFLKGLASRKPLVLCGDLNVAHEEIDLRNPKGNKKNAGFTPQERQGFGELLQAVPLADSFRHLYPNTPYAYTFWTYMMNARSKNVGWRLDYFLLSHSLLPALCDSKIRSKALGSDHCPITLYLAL

SMILES: CCN(CC)c1ccc(C=C2SC(=S)N(NC(=S)C(=O)Nc3cc(OC)c(OC)c(OC)c3)C2=O)c(O)c1 [Compound 33, 2-({5-[4-(Diethylamino)-2-hydroxybenzylidene]-4-oxo-2-thioxo-1,3-thiazolidin-3-yl}amino)-2-thioxo-N-(3,4,5-trimethoxyphenyl)acetamide]
- IC50 (HIV-1 IN; [2]): > 100 µM
- IC50 (HIV-1 IN; [3]): > 100 µM
- IC50 [1]: > 100 µM
- melting point: 210 to 211 °C

SMILES: COc1cc(NC(=O)C(=S)NN2C(=O)C(=Cc3cc(N=Nc4ccccc4)ccc3O)SC2=S)cc(OC)c1OC [Compound 34, 2-[(5-{2-Hydroxy-5-[phenyldiazenyl]benzylidene}-4-oxo-2-thioxo-1,3-thiazolidin-3-yl)amino]-2-thioxo-N-(3,4,5-trimethoxyphenyl)acetamide]
- IC50 (HIV-1 IN; [2]): 33 ± 19 µM
- IC50 (HIV-1 IN; [3]): 26 ± 14 µM
- IC50 [1]: > 100 µM
- melting point: 149 to 150 °C

SMILES: COc1cc(NC(=O)C(=S)NN2C(=O)/C(=C\c3ccc(O)c(C(=O)O)c3)SC2=S)cc(OC)c1OC [Compound 35]
- IC50 (HIV-1 IN; [2]): 45 ± 24 µM
- IC50 (HIV-1 IN; [3]): 61 ± 11 µM
- IN inhibition (in words) (HIV-1 IN; highest concentration tested 100 μM): only a moderate effect
- IC50 [1]: > 100 µM
- melting point: 239 to 240 °C

SMILES: COc1cc(NC(=O)C(=S)NN2C(=O)C(=Cc3cc(Cl)cc(Cl)c3O)SC2=S)cc(OC)c1OC [Compound 36, 2-{[5-(3,5-Dichloro-2-hydroxybenzylidene)-4-oxo-2-thioxo-1,3-thiazolidin-3-yl]amino}-2-thioxo-N-(3,4,5-trimethoxyphenyl)acetamide]
- IC50 (HIV-1 IN; [2]): 46 ± 5 µM
- IC50 (HIV-1 IN; [3]): > 100 µM
- IC50 [1]: > 100 µM
- melting point: 215 to 216 °C

SMILES: COc1cc(NC(=O)C(=S)NN2C(=O)C(=Cc3cc(Br)cc(Br)c3O)SC2=S)cc(OC)c1OC [Compound 37, 2-{[5-(3,5-Dibromo-2-hydroxybenzylidene)-4-oxo-2-thioxo-1,3-thiazolidin-3-yl]amino}-2-thioxo-N-(3,4,5-trimethoxyphenyl)acetamide]
- IC50 (HIV-1 IN; [2]): 33 ± 7 µM
- IC50 (HIV-1 IN; [3]): 35 ± 6 µM
- IC50 [1]: > 100 µM
- melting point: 221 to 222 °C

SMILES: COc1cc(NC(=O)C(=S)NN2C(=O)C(=Cc3cc(I)cc(I)c3O)SC2=S)cc(OC)c1OC [Compound 39, 2-{[5-(2-Hydroxy-3,5-diiodobenzylidene)-4-oxo-2-thioxo-1,3-thiazolidin-3-yl]amino}-N-(3,4,5-trimethoxyphenyl)-2-thioxoacetamide]
- decrease in potency relative to 53 (HIV-1 IN; IN inhibition, trimethoxy versus p-hydroxyl in ring A): 10 fold
- IC50 (HIV-1 IN; [2]): 47 ± 20 µM
- IC50 (HIV-1 IN; [3]): 31 ± 16 µM
- IC50 [1]: > 100 µM
- melting point: 235 to 236 °C

SMILES: O=C(Nc1ccc(O)cc1)C(=S)NN1C(=O)C(=Cc2cc(Cl)ccc2O)SC1=S [Compound 41, 2-{[5-(5-Chloro-2-hydroxybenzylidene)-4-oxo-2-thioxo-1,3-thiazolidin-3-yl]amino}-N-(4-hydroxy-phenyl)-2-thioxoacetamide]
- IC50 (HIV-1 IN; [2]): > 100 µM
- IC50 (HIV-1 IN; [3]): 67 µM
- IC50 [1]: > 100 µM
- melting point: 220 to 221 °C

SMILES: O=C(Nc1ccc(O)cc1)C(=S)NN1C(=O)C(=Cc2cc(Br)ccc2O)SC1=S [Compound 42, 2-{[5-(5-Bromo-2-hydroxybenzylidene)-4-oxo-2-thioxo-1,3-thiazolidin-3-yl]amino}-N-(4-hydroxy-phenyl)-2-thioxoacetamide]
- IC50 (HIV-1 IN; [2]): > 100 µM
- IC50 (HIV-1 IN; [3]): > 100 µM
- IC50 [1]: > 100 µM
- melting point: 190 to 191 °C

SMILES: O=C(Nc1ccc(O)cc1)C(=S)NN1C(=O)C(=Cc2cccc([N+](=O)[O-])c2O)SC1=S [Compound 43, 2-{[5-(2-Hydroxy-3-nitrobenzylidene)-4-oxo-2-thioxo-1,3-thiazolidin-3-yl]amino}-N-(4-hydroxy-phenyl)-2-thioxoacetamide]
- IC50 (HIV-1 IN; [2]): > 100 µM
- IC50 (HIV-1 IN; [3]): 88 µM
- IC50 [1]: > 100 µM
- melting point: 179 to 180 °C

SMILES: O=C(Nc1ccc(O)cc1)C(=S)NN1C(=O)C(=Cc2cc([N+](=O)[O-])ccc2O)SC1=S [Compound 44, 2-{[5-(2-Hydroxy-5-nitrobenzylidene)-4-oxo-2-thioxo-1,3-thiazolidin-3-yl]amino}-N-(4-hydroxy-phenyl)-2-thioxoacetamide]
- IC50 (HIV-1 IN; [2]): 53 ± 8 µM
- IC50 (HIV-1 IN; [3]): 45 ± 14 µM
- IC50 [1]: > 100 µM
- melting point: 199 to 200 °C

SMILES: CCOc1cccc(C=C2SC(=S)N(NC(=S)C(=O)Nc3ccc(O)cc3)C2=O)c1O [Compound 45, 2-{[5-(3-Ethoxy-2-hydroxybenzylidene)-4-oxo-2-thioxo-1,3-thiazolidin-3-yl]amino}-N-(4-hydroxyphenyl)-2-thioxoacetamide]
- IC50 (HIV-1 IN; [2]): > 100 µM
- IC50 (HIV-1 IN; [3]): > 100 µM
- IC50 [1]: > 100 µM
- melting point: 184 to 185 °C

SMILES: C=CCc1cccc(C=C2SC(=S)N(NC(=S)C(=O)Nc3ccc(O)cc3)C2=O)c1O [Compound 46, 2-{[5-(3-Allyl-2-hydroxybenzylidene)-4-oxo-2-thioxo-1,3-thiazolidin-3-yl]amino}-N-(4-hydroxy-phenyl)-2-thioxoacetamide]
- IC50 (HIV-1 IN; [2]): > 100 µM
- IC50 (HIV-1 IN; [3]): 100 µM
- IC50 [1]: > 100 µM
- melting point: 153 to 154 °C

SMILES: CCN(CC)c1ccc(C=C2SC(=S)N(NC(=S)C(=O)Nc3ccc(O)cc3)C2=O)c(O)c1 [Compound 47, 2-({5-[4-(Diethylamino)-2-hydroxybenzylidene]-4-oxo-2-thioxo-1,3-thiazolidin-3-yl}amino)-N-(4-hydroxyphenyl)-2-thioxoacetamide]
- IC50 (HIV-1 IN; [2]): > 100 µM
- IC50 (HIV-1 IN; [3]): > 100 µM
- IC50 [1]: > 100 µM
- melting point: 206 to 207 °C

SMILES: O=C(Nc1ccc(O)cc1)C(=S)NN1C(=O)C(=Cc2ccc(O)c(C(=O)O)c2)SC1=S [Compound 49, 2-Hydroxy-5-{[3-({2-[(4-hydroxyphenyl)amino]-2-oxoethanethioyl}amino)-4-oxo-2-thioxo-1,3-thiazolidin-5-ylidene]methyl}benzoic acid]
- IC50 (HIV-1 IN; [2]): 80 µM
- IC50 (HIV-1 IN; [3]): 45 µM
- IC50 [1]: > 100 µM
- melting point: 223 to 224 °C
